From patent publication US8895717B2, “Delivery of siRNA by neutral lipid compositions” (The Board of Regents of the University of Texas System, priority 2005, dated 2014)

What was measured:
[1] = test system: SKOV3 cells; assay: Cytotoxicity assay (MTT), SKOV3; assay type: cell-based, human; details: Homo sapiens, SK-OV-3; SKOV3, 96 hours
Procedure: (§1) The medium was exchanged after 48 hours with increasing concentrations of docetaxel (obtained from Aventis Pharma, Bridgewater, N.J.) dissolved in ethanol (final concentration range, 0.1-10,000 nmol/L prepared in medium) or cisplatin (purchased from LKT Laboratories, Inc., St. Paul, Minn.) dissolved in water. After a 96-hour incubation, 50 μL of 0.15% 3-(4,5-dimethylthiazol-2-yl)-2,5-diphenyltetrazolium bromide was added to each well and incubated for 2 hours. The supernatant was removed, and cells were dissolved in 100 μL DMSO. The absorbance at 570 nm was recorded using a FALCON microplate reader (Becton Dickinson Labware, Bedford, Mass.), and cell survival expressed as a percent increase or decrease above control conditions, after subtracting blank A570 readings. The IC50 concentration was determined by finding the A570 reading midpoint between maximal and minimal readings and finding the chemotherapy concentration that intersects the growth curve at that A570 reading.

[2] = test system: HeyA8 cells; assay: Cytotoxicity assay (MTT), HeyA8; assay type: cell-based, human; details: Homo sapiens, HEY A8; HeyA8, 96 hours
Procedure: as §1

[3] = test system: SKOV3-TR cells; assay: Cytotoxicity assay (MTT), SKOV3-TR; assay type: cell-based, human
Procedure: as §1

[4] = test system: HeyA8-MDR cells; assay: Cytotoxicity assay (MTT), HeyA8-MDR; assay type: cell-based, human
Procedure: as §1

[5] = test system: caspase-3; assay: Caspase-3 activity in ovarian cancer cells (DEVD-AFC); assay type: cell-based, human; details: for increase in caspase-3 activity: 24 hours
Procedure: Ovarian cancer cells (1×10^6) in culture (six-well plates) were treated with or without docetaxel at the cell line specific IC50 or IC90 concentration for 24 hours. After washing with PBS, cells were lysed in 50 μL of cell lysis buffer provided. Caspase-3, caspase-8, and caspase-9 activities were measured with the appropriate apoptosis detection kit (BD Biosciences/Clontech, Palo Alto, Calif.), using substrate DEVD-AFC for caspase-3, IETD-AFC for caspase-8, and LEHD-AMC for caspase-9.

[6] = test system: FAK; assay: FAK cleavage in response to docetaxel, Western blot; assay type: cell-based, human
Procedure: Cells were lysed in modified RIPA buffer (50 mM Tris, 150 mM NaCl, 1% triton, 0.5% deoxycholate plus 25 µg/ml leupeptin, 10 µg/ml aprotinin, 2 mM EDTA, and 1 mM sodium orthovanadate (Sigma Chemical Co, St. Louis, Mo.) as previously described (Sood et al., 2004; Sood et al., 2002). A sample was removed from culture dishes by cell scraping and centrifuged at 12,500 rpm for 30 min. The […] protein concentration of the supernatant was determined using a bicinchoninic acid protein assay reagent kit (Pierce, Rockford, Ill.), and whole cell lysates were analyzed by 7.5% SDS-PAGE. Samples were then transferred to nitrocellulose membrane by semi-dry transfer (BioRad Laboratories, Hercules, Calif.). Membranes were blocked with 5% nonfat milk, and incubated with 0.25 μg/mL anti-FAK antibody (Biosource, International Camarillo, Calif.) for 1 h at room temperature. Antibody was detected with 0.167 μg/mL HRP-conjugated anti-mouse secondary antibody (The Jackson Laboratory, Bar Harbor, Me.) and developed with an enhanced chemiluminescence detection kit (Pierce). Equal loading was confirmed by detection of β-actin (0.1 μg/ml, anti-β-actin antibody, Sigma Chemical). Densitometric analysis was performed using the Scion Imaging software (Scion Corporation, Frederick, Md.).
It has been reported that FAK may be cleaved by caspase-3 (Gervais et al., 1998; Sasaki et al., 2002; Carragher et al., 2001). Based on observations regarding modulation of caspase levels by docetaxel in ovarian cancer cells, FAK cleavage after treatment with docetaxel was examined and whether there are differences in extent of FAK cleavage between the taxane-sensitive and taxane-resistant cell lines. In SKOV3 cells, FAK was cleaved after 48 and 72 hours of exposure to docetaxel (FIG. 7A). The 71-kDa fragments increased after treatment with docetaxel, whereas the 125-kDa fragments decreased. […] To study the dependence of FAK cleavage on caspase-3, the effect of DEVDfmk (caspase-3 inhibitor) was examined.

[7] = test system: SKOV3 cells; assay: TUNEL apoptosis assay, SKOV3; assay type: cell-based, human
Procedure: (§2) Terminal deoxynucleotidyl transferase-mediated nick end labeling-positive cells were detected using Dead End Fluorometric terminal deoxynucleotidyl transferase-mediated nick end labeling system (APO-DIRECT, BD Biosciences/PharMingen, San Diego, Calif.) according to the manufacturer's instructions. […] Cells were fixed with 4% paraformaldehyde solution for 25 minutes on ice. Intracellular DNA fragments were then labeled by exposing cells to fluorescein-12-dUTP, treated with propidium iodide and RNaseA solution, and analyzed by flow cytometry (EPICS XL, Beckman Coulter, Miami, Fla.). The percentages of apoptotic cells were averaged over three consecutive experiments.

[8] = test system: HeyA8 cells; assay: TUNEL apoptosis assay, HeyA8; assay type: cell-based, human
Procedure: as §2

[9] = test system: SKOV3-TR and HeyA8-MDR cells; assay: TUNEL apoptosis assay, taxane-resistant cells; assay type: cell-based, human
Procedure: Terminal deoxynucleotidyl transferase-mediated nick end labeling-positive cells were detected using Dead End Fluorometric terminal deoxynucleotidyl transferase-mediated nick end labeling system (APO-DIRECT, BD Biosciences/PharMingen, San Diego, Calif.) according to the manufacturer's instructions. Briefly, ovarian cancer cells in culture were treated with varying concentrations of docetaxel and harvested after 12, 24, 48, or 96 hours. Cells were fixed with 4% paraformaldehyde solution for 25 minutes on ice. Intracellular DNA fragments were then labeled by exposing cells to fluorescein-12-dUTP, treated with propidium iodide and RNaseA solution, and analyzed by flow cytometry (EPICS XL, Beckman Coulter, Miami, Fla.). The percentages of apoptotic cells were averaged over three consecutive experiments.

[10] = test system: HeyA8 cells; assay: Daily β-agonist treatment of mice bearing HeyA8 ovarian cancer cells; assay type: in vivo, nude mice; details: 10 mg/kg daily
Text: Mice habituated to vivarium conditions for 1 week before the initiation of stress procedures. A restraint-stress procedure was used based on previous studies (Sheridan et al., 1991), substituting a novel Mouse Restraint System (FIG. 15A) for conical centrifuge tubes. In this system, up to 10 mice are placed in individual slots, and each slot can be adjusted to restrain the animal for a desired length of time. In the present study, restraint stress began between 8 a.m. and 10 a.m., and lasted for 2-6 hours for up to 21 days. The ovarian cancer cell lines were harvested from subconfluent cultures by a brief exposure to 0.25% trypsin and 0.02% EDTA, resuspended in Hank's balanced salt solution (HBSS), and tested for >95% viability by trypan blue dye exclusion. The HeyA8 cells were injected i.p. into mice at a concentration of 2.5×10^5 cells while the other cell lines were injected at 1.0×10^6 cells per 0.2 ml HBSS, ten days after starting stress in all groups. Animals were necropsied 21 days after tumor injection, and tumors in the peritoneal cavity were excised, weighed, and documented for location. Immunohistochemistry and H&E staining procedures were carried out on formalin-fixed paraffin-embedded tumors.
Starting 4 days after tumor cell injection, mice bearing HeyA8 ovarian cancer cells (n=10 per group) were treated daily with either 1) PBS; 2) isoproterenol (non-specific β-agonist) 10 mg/kg; 3) terbutaline (β2-agonist) 5 mg/kg; 4) xamoterol (β1-agonist) 1 mg/kg; or 5) isoproterenol plus 2 mg/kg of the non-specific β-antagonist propranolol.

[11] = test system: HeyA8 tumor samples; assay: Mean vessel density (CD31) in HeyA8 tumor samples; assay type: in vivo, nude mice; details: daily agonist treatment
Procedure: Paraffin sections were stained for CD31 (1:800 dilution, Pharmingen, San Jose, Calif.), MMP-2 (1:500 dilution, Chemicon, Temecula, Calif.), MMP-9 (1:200 dilution, Calbiochem, San Diego, Calif.), VEGF (1:500 dilution, Santa Cruz Biotechnology, Santa Cruz, Calif.) and bFGF (1:1,000 dilution, Sigma, St. Louis, Mo.) at 4° C. Samples were stained with a biotinylated goat anti-rabbit antibody for 30 min (prediluted), followed by strepavidin horseradish peroxidase for 30 min (1:300 dilution), and visualized in 3,3′-diaminobenzidine (DAB) for 5-10 min.
To quantify MVD, 10 random 0.159 mm^2 fields at 100× magnification were examined for each tumor, and the microvessels within those fields were counted. A single microvessel was defined as a discrete cluster of cells stained CD31(+), and the presence of a lumen was required for scoring as a microvessel.

[12] = test system: VEGF mRNA; assay: VEGF mRNA expression, real-time RT-PCR; assay type: cell-based, human
Procedure: Total RNA was extracted (Trizol reagent; Invitrogen Co, Carlsbad, Calif.) and reverse transcribed using an oligo(dT) primer and M-MLV reverse transcriptase (Life Technologies, Inc., Rockville, Md.) in a final reaction volume of 20 μl (60 min at 42° C.). PCR amplifications are performed using the ABI Prism 7700 Sequence Detection System with TaqMan One-Step RT-PCR Master Mix Reagent kit (PE Applied Biosystems, Foster City, Calif.). Quantitative values are obtained from the Ct value, at which the increase in fluorescent signal associated with exponential growth of PCR products starts to be detected by the laser detector of the Sequence Detection System, using the analysis software according to the manufacturer's instructions (each sample is normalized on the basis of its I8S content). The VEGF primers were obtained from Applied Biosystems (Item number HS00173626-ml). βAR expression was examined with semi-quantitative RT-PCR using the following primers: βAR (forward, 5′-[…]-3′ (SEQ ID NO:13), reverse, 5′-[…]-3′) (SEQ ID NO:14); β2AR (forward, 5′-[…]-3′ (SEQ ID NO:15), reverse, 5′-[…]-3′) (SEQ ID NO:16).

[13] = test system: A2780 and RMG-II cells; assay: Intracellular cAMP in βAR negative cell lines; assay type: cell-based, human

CC(=O)O[C@@]12CO[C@@H]1C[C@H](O)[C@@]1(C)C(=O)[C@H](O)C3=C(C)[C@@H](OC(=O)[C@H](O)[C@@H](NC(=O)OC(C)(C)C)c4ccccc4)C[C@@](O)([C@@H](OC(=O)c4ccccc4)[C@H]21)C3(C)C [docetaxel]
IC50 [1]: 0.0062 µM | IC50 [2]: 0.001 µM | IC50 ([3]; Homo sapiens, SKOV3TR, SKOV3-TR, 96 hours): 0.225 µM | fold more resistant to docetaxel ([3]; SKOV3-TR versus SKOV3): 36 fold | fold more resistant to docetaxel ([4]; HeyA8-MDR versus HeyA8): 300 fold | IC50 ([4]; Homo sapiens, HeyA8-MDR, 96 hours): 0.45 µM | increase in caspase-3 activity ([5]; HeyA8, IC50 level of docetaxel): 1.8 fold | increase in caspase-3 activity ([5]; HeyA8, IC90 level of docetaxel): 2.5 fold | increase in caspase-3 activity ([5]; SKOV3, IC50 level of docetaxel): 2.8 fold | increase in caspase-3 activity ([5]; SKOV3, IC90 level of docetaxel): 5.4 fold | induction of caspase activity ([5]; resistant SKOV3-TR and HeyA8-MDR, IC50 and IC90 levels for sensitive lines, caspase-3, -8, -9): not able to induce caspase activity | FAK cleavage ([6]; SKOV3, 48 and 72 hours): cleaved | FAK cleavage ([6]; SKOV3-TR and HeyA8-MDR): did not show any increase in FAK cleavage products | apoptosis ([7]; SKOV3, IC20 level of docetaxel, FAK siRNA 48 hours before): about 41% | proportion of apoptotic cells ([7]; SKOV3, docetaxel 72 hours without or with DEVD-fmk): 72% | proportion of apoptotic cells ([7]; SKOV3, docetaxel 96 hours): 84% | apoptosis ([8]; HeyA8, IC20 level of docetaxel, FAK siRNA 48 hours before): ~42% | proportion of apoptotic cells ([8]; HeyA8, docetaxel 72 hours without or with DEVD-fmk): 56% | proportion of apoptotic cells ([8]; HeyA8, docetaxel 96 hours): 66% | apoptosis ([9]; FAK siRNA with or without docetaxel): neither agent alone induced much apoptosis | level of apoptosis ([9]; docetaxel with or without DEVD-fmk): remained low

CC(C)NCC(O)c1ccc(O)c(O)c1 (centres unmarked) [isoproterenol]
increase in average tumor weight compared to control [10]: 266% | increase in mean number of tumor nodules compared to control [10]: 341% | MVD counts [11]: significantly higher MVD counts compared to controls | effect on VEGF mRNA ([12]; SKOV3ip1, forskolin 1 μM, db-cAMP 1 mM): mimicked | intracellular cAMP levels after stimulation [13]: neither of the βAR negative cell lines showed an increase in intracellular cAMP levels

NC[C@H](O)c1ccc(O)c(O)c1 [norepinephrine]
increase in VEGF mRNA expression ([12]; SKOV3ip1, peak 1.5 hours following treatment): 8.4 fold | VEGF expression ([12]; βAR-negative A2780 cells): no increase in VEGF expression | intracellular cAMP levels after stimulation [13]: neither of the βAR negative cell lines showed an increase in intracellular cAMP levels
